Source: article PMC9887672, “Predicting human cardiac QT alterations and pro-arrhythmic effects of compounds with a 3D beating heart-on-chip platform” (Toxicological Sciences, 2022)
“Also recorded” adds a separate entry of the source. Read-outs that look alike come from different tables or passages of the source.

Tests used:
[1] = test system: uHeart 3D cardiac microtissues (h-iPSC-CMs and dermal fibroblasts in fibrin); assay: Drug screening on uHeart: field potential recording (FPDcF, BP, AMP, arrhythmic events, beating cessation); conditions: for Concentration at which the described FPDcF change was seen: aspirine: increment just above LOW threshold, alfuzosin: slight shortening; for [%FPDcF] >LOW, drug concentration: concentration causing FPDcF change by 10% vs baseline; for Arrhythmic events: detected (Y) or not (N) in uHeart; for Effect on FPDcF (in words) / Effect on beating period BP (in words) / Effect on spike amplitude AMP (in words): incremental doses; for Effect on FPDcF (in words): change vs baseline; for TdP risk category proposed from uHeart score: score vs ratio effective concentration/fETPC, Figure 6D; for FPDcF alteration, direction, at [%FPDcF]>HIGH: threshold HIGH = 20% change vs baseline; for FPDcF alteration, direction, at [%FPDcF] >MID: threshold MID = 15% change vs baseline; for Arrhythmic events, lowest detected concentration: value in brackets in Table 2
Protocol: Human adult dermal fibroblasts were provided by Lonza Group Ltd. H-iPSC-CMs were thawed according to standard protocols and immediately used. Fibroblasts were expanded at confluency in DMEM (Gibco, 4.5 g l^−1 glucose) supplemented with 10% v/v FBS, 100 U ml^−1 penicillin, 100 μg ml^−1 streptomycin, and 10 mmol HEPES and used at passage 10–11. […] Subsequently, 2 μl of cell solution was inoculated into the central channel of each chamber of the uBeat Platform (provided by BiomimX Srl). The hydrogel was cross-linked in the incubator at 37°C for 8 min before manually adding the plating medium (FUJIFILM Cellular Dynamics Inc.) supplemented with 100 U ml^−1 penicillin, 100 μg ml^−1 streptomycin, and 2 mg ml^−1 of 6-Aminocaproic acid (ACA). […] This medium was used and changed every day for the following 6 days.
Field potential (FP) measurements (Figure 1B) were performed after 6 or 7 days of culture, when the model expresses a strong spontaneous and synchronous beating. […] An AgCl ground electrode was inserted in one of the 4 cell culture medium reservoirs. Cell culture medium was changed at least 1 h prior to perform the measurements. To execute the tests, uHeart was maintained in the incubator at 37°C with 5% CO2 and the electrodes were connected to an extracellular amplifier (Ext-02b, Npi Electronic GmbH, Germany) with a 1 × 10^4 gain and a bandpass filter between 0.3 Hz and 10 kHz. FPs were acquired with an electronic board (Analog Discovery 2, Digilent, Washington) at a rate of 2000 samples s^−1.
The cell culture medium was exchanged with fresh serum-free RPMI medium and after 1 h the baseline FP signal was recorded for at least 3 min. Subsequently, the lowest drug dose was administered to the microtissues and incubated at 37°C for 10–20 min before recording the corresponding FP for at least 3 min. Between each incremental dose, a 5-min washing was performed with serum-free RPMI medium.
Results of BP, FPD, and AMP assessed by the algorithm were compared against manual measurement. BP and FPD were additionally analyzed by applying an initial bandwidth filter to the signal (3rd order Butterworth filter, 0.67–100 Hz, zero phase), to further verify the quality of the estimates obtained. After the validation, the algorithm was used to analyze the FP signal recorded during the pharmacological campaign. Signals not correctly recognized by the software, as verified by visual inspection on the user interface, were manually analyzed.
For compounds not evoking responses, the maximum tested concentration respect to the fETPC was used.
A quality control was established to select the signals to be considered for the evaluation of electrophysiological parameters changes in response to increasing concentrations of compounds. […] This inclusion criteria ensured that the developed cardiac microtissues spontaneously beat in a consistent way and allowed to normalize the obtained FP signals with correction methods based on the beating frequency.

[2] = cited from earlier work; for fETPC: free effective therapeutic plasma concentration, ref Nguyen et al. (2017), Yamazaki et al. (2018)
[3] = TdP risk category; ref Blinova et al., 2017; cited from earlier work
[4] = design: method as in Mair et al., 2022; conditions: long incubation, after 7 days; ref Mair et al., 2022; cited from earlier work
[5] = clinical highest blood drug concentration, ref Blinova et al. (2017), Kopljar et al. (2018), Voelker and Hammer (2012)

SMILES	[%FPDcF] >LOW, drug concentration [1] [µM]	Arrhythmic events ([1]; also in words)	Effect on FPDcF (in words) [1]	TdP risk category proposed from uHeart score [1]	FPDcF alteration, direction, at [%FPDcF]>HIGH [1]	FPDcF alteration, direction, at [%FPDcF] >MID [1]	Cmax [2, 5] [µM]	fETPC [2] [µM]	Arrhythmic events, percentage of uHearts affected [1] [%]	Effect on beating period BP (in words) [1]	further results
COc1cc2nc(N(C)CCCNC(=O)C3CCCO3)nc(N)c2cc1OC (stereo not shown) [Alfuzosin]	0.3	caused arrhythmic beating	did not showed a peculiar trend	low-risk	↔ [drawing 30]	↔ [drawing 29]	0.015	0.01			Concentration at which the described FPDcF change was seen [1]: 0.3 µM; FPDcF prolongation ([1]; at high concentration (ie,100 µM)): ~10%; Effect on FPDcF (in words) ([1]; listed as alfuzosin): shortening
CC(=O)Oc1ccccc1C(=O)O [Aspirin]			did not change the FPDcF	low-risk	↔ [drawing 33]	↔ [drawing 32]	24.4	7.1			Concentration at which the described FPDcF change was seen [1]: 300 µM; Effect on FPDcF (in words) ([1]; listed as aspirine): increment of the FPDcF just above the LOW threshold only at the highest concentration tested; FPDcF alteration, direction, at [%FPDcF] >LOW ([1]; threshold LOW = 10% change vs baseline): ↔ [drawing 31]
COc1cc(N)c(Cl)cc1C(=O)NC1CCN(CCCOc2ccc(F)cc2)CC1OC (stereo not shown) [Cisapride]		caused arrhythmic beats	slightly decrease in the FPDcF; also recorded: shortened the repolarization time at all considered thresholds; also recorded: did not revealed a FPDcF prolongation	high risk					50		Risk CiPa [3]: I; Stop, percentage of uHearts [1]: 25%; uHearts that ceased beating over uHearts tested [1]: 2 over 4; Stop (spontaneous beating cessation) ([1]; Y or N, also in words): interrupted the spontaneous beating of microtissues
CN(CCOc1ccc(NS(C)(=O)=O)cc1)CCc1ccc(NS(C)(=O)=O)cc1 [Dofetilide]		Arrhythmic events were detected	concentration-dependent prolongation of the FPDcF	high risk					66	slightly increased the BP	Stop, percentage of uHearts [1]: 33%; uHearts that ceased beating over uHearts tested [1]: 1 over 3; Effect on spike amplitude AMP (in words) [1]: incremental decrease in the AMP; Effect on FPDcF (in words) ([1]; listed as dofetilide): prolonged the FPDcF above the defined thresholds; also recorded: dose-related FPDcF prolongation
Cc1cccc(C)c1OCC(C)N (stereo not shown) [Mexiletine]	50			low-risk	↔ [drawing 21]	↔ [drawing 20]		2.5		did not show a trend in altering neither the FPDcF nor the BP; also recorded: without majorly affecting the FPDcF or the BP	Concentration at which AMP statistically decreased ([1]; already at medium concentration): 10 µM; Effect on spike amplitude AMP (in words) [1]: statistically decreased in a concentration-dependent way; also recorded: dose-related statistically significant reduction of the FP amplitude
C=C[C@H]1C[N@@]2CC[C@H]1C[C@@H]2[C@@H](O)c1ccnc2ccc(OC)cc12 [Quinidine]	0.06	Arrhythmic events were detected	prolonged the FPDcF above the defined thresholds; also recorded: dose-related FPDcF prolongation	high risk			3	3	50	slightly increased the BP	[%FPDcF] >MID, drug concentration ([1]; concentration causing FPDcF change by 15% vs baseline): 1 µM; [%FPDcF]>HIGH, drug concentration ([1]; concentration causing FPDcF change by 20% vs baseline): 10 µM; Arrhythmic events, lowest detected concentration [1]: 0.1 µM
COc1ccccc1OCC(O)CN1CCN(CC(=O)Nc2c(C)cccc2C)CC1 (stereo not shown) [Ranolazine]		generated arrhythmia; also recorded: caused arrhythmic beating	statistically enhanced the repolarization time; also recorded: prolonged the FPDcF; also recorded: dose-related FPDcF prolongation	high-risk					20	increase the BP	Effect on beating period BP (in words) ([1]; listed as ranolazine): rose the BP
CC(C)NCC(O)c1ccc(NS(C)(=O)=O)cc1 (stereo not shown) [Sotalol]		did not elicit any arrhythmia; also recorded: not found to provoke arrhythmic events	prolonged the FPDcF above the defined thresholds; also recorded: dose-related FPDcF prolongation	high risk						slightly increased the BP; also recorded: drug dose dependent increase of the BP	
CC(C)(C)c1ccc(C(O)CCCN2CCC(C(O)(c3ccccc3)c3ccccc3)CC2)cc1 (stereo not shown) [Terfenadine]		arrhythmic events	statistically prolonged the FPDcF at high dosages; also recorded: prolongation of the FPDcF	high risk			0.00029	0.00029	60	without affecting the BP	Reduction of compound by absorption in PDMS [4]: about 20%; Concentration at which FPDcF was statistically prolonged ([1]; Kruskal-Wallis with Dunn's test): 0.3 µM; Concentration found effective in uHeart ([1]; as quoted in Discussion): 100 µM; Arrhythmic events, lowest detected concentration [1]: 0.001 µM; fETPC in the presence of metabolic inhibition ([2]; patients, cytochrome P450 inhibitor, ref Redfern et al., 2003): about 4 nM; Cmax ([2]; read-out: Cmax or fETPC, clinical value of patients, ref Ando et al., 2017): 0.00029 µM
